The text below walks through data of patent publication US11739098B2 (BRISTOL-MYERS SQUIBB COMPANY, priority 2017, dated 2023).

Common to all, as to format: cell-based
The target in assay [1] is T1, human TLR7 (Homo sapiens, UniProt Q9NYK1).
T1 construct: host or cells: HEK-Blue cells (HEK293-derived reporter line)
T1 sequence (Q9NYK1 27-1049): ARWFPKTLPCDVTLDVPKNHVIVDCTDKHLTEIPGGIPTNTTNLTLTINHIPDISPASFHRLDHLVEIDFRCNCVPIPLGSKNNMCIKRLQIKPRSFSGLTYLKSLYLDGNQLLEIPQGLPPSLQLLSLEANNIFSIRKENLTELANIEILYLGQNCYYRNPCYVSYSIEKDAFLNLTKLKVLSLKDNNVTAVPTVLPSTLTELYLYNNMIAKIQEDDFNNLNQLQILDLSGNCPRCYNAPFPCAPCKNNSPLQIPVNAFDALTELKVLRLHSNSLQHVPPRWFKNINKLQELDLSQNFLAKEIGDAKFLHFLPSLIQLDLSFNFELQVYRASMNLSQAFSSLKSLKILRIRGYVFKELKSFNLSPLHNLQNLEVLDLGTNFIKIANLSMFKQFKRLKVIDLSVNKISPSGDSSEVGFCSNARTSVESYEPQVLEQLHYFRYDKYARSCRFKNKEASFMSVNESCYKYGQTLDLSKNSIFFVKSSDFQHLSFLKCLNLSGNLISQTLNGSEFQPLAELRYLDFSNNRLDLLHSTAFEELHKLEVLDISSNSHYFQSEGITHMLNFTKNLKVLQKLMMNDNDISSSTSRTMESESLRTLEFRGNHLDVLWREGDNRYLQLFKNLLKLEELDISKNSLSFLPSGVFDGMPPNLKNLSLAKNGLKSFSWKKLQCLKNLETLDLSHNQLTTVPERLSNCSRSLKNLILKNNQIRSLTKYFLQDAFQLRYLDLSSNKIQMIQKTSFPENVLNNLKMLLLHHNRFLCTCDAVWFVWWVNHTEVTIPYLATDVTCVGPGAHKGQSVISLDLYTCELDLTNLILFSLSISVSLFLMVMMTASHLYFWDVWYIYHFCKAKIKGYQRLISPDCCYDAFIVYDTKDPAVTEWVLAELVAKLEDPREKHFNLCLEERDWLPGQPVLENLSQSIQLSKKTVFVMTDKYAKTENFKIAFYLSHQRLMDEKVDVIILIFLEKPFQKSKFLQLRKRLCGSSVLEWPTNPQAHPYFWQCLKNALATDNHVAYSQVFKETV
Put plainly: TLR7 inhibition reporter assay (HEK-Blue cells, SEAP reporter, gardiquimod stimulation). As to conditions: HEK-Blue cells overexpressing human TLR7, SEAP reporter, gardiquimod 7.5 μM. The method in brief: (§1)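 Agonists (final): TLR7 gardiquimod 7.5 μM; TLR8 R848 15.9 μM; TLR9 ODN2006 5 nM. HEK-Blue reporter cells, 30 min RT compound pre-incubation, 0.05 nM–50 μM dose range, 22 h at 37 °C, colorimetric SEAP detection medium. % inhibition relative to agonist+DMSO and known-inhibitor wells.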

Assay [2] concerns the target T2, human TLR8 (Homo sapiens, UniProt Q9NR97).
T2 construct: host or cells: HEK-Blue cells (HEK293-derived reporter line)
T2 sequence (Q9NR97 27-1041): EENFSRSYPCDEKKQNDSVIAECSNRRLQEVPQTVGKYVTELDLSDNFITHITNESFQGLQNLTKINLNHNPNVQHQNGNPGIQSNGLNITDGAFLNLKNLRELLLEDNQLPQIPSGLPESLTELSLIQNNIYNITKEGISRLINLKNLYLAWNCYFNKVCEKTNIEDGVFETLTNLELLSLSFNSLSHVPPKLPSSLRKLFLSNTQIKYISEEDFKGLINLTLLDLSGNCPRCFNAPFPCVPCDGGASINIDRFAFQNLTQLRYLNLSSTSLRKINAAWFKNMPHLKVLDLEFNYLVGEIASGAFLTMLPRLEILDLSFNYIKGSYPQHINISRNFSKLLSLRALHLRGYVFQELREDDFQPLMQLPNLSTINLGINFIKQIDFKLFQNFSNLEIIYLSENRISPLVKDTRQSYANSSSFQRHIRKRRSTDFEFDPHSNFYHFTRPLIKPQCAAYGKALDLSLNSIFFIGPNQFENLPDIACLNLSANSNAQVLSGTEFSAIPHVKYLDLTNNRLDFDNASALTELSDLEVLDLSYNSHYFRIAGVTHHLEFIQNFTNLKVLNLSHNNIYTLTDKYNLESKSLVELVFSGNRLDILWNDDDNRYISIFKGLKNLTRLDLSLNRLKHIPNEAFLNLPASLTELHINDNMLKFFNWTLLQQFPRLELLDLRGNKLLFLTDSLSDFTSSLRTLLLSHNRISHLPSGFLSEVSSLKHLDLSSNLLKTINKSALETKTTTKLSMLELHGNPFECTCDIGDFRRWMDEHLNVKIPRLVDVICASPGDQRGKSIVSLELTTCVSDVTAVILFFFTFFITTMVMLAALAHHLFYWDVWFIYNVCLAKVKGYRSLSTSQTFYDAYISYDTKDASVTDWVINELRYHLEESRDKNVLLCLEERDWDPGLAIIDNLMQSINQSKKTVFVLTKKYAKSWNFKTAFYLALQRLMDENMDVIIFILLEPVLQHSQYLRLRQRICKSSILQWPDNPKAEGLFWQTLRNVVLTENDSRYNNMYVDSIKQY
In words: TLR8 inhibition reporter assay (HEK-Blue cells, SEAP reporter, R848 stimulation). The settings on record: HEK-Blue cells overexpressing human TLR8, SEAP reporter, R848 15.9 μM. The method in brief: as §1

Assay [3] concerns the target T3, human TLR9 (Homo sapiens, UniProt Q9NR96).
T3 construct: host or cells: HEK-Blue cells (HEK293-derived reporter line)
T3 sequence (Q9NR96 26-1032): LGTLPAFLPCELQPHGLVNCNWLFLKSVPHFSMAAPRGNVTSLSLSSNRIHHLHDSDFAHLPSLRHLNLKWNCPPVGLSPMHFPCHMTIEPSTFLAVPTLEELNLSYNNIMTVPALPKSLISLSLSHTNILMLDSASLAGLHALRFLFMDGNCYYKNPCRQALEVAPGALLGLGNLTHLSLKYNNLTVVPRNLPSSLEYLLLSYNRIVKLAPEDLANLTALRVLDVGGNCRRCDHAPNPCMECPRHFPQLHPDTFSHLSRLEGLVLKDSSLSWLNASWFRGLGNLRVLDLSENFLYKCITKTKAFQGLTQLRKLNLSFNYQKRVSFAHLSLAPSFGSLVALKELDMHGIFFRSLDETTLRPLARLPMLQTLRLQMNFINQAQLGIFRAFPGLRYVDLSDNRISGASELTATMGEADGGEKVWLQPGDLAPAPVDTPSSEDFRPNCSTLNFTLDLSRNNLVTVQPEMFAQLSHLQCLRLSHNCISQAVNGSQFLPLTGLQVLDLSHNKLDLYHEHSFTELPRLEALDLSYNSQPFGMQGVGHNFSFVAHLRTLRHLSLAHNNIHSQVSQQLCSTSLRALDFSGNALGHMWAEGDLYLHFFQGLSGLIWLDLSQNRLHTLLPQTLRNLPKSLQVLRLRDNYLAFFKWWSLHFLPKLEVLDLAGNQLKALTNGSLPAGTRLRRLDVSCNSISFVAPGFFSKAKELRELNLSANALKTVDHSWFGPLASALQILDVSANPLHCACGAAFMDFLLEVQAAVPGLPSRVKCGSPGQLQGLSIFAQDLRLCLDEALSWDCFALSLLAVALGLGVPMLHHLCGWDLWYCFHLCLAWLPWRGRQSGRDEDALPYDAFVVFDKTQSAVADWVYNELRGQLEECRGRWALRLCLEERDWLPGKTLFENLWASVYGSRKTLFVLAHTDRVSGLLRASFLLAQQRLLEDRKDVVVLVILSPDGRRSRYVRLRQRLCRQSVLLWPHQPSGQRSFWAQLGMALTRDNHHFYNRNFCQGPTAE
Put plainly: TLR9 inhibition reporter assay (HEK-Blue cells, SEAP reporter, ODN2006 stimulation). The settings on record: HEK-Blue cells overexpressing human TLR9, SEAP reporter, ODN2006 5 nM. The essentials:
as §1

SMILES strings stand for the structures.

On to `CCc1c(-c2ccnc3[nH]ncc23)[nH]c2ccc(C3CCN(Cc4[nH]cnc4C)CC3)cc12` [Example 916, 4-(3-ethyl-5-(1-((4-methyl-1H-imidazol-5-yl)methyl)piperidin-4-yl)-1H-indol-2-yl)-1H-pyrazolo[3,4-b]pyridine], for which the 50% inhibitory concentration (IC50) in assay [1], in assay [2] and in assay [3] was 100 to 1000 nM throughout.
As for `Cc1cc(-c2[nH]c3ccc(C4CCN(C5COC5)CC4)cc3c2C(C)C)cc2nccn12` [Example 711, 7-(3-isopropyl-5-(1-(oxetan-3-yl)piperidin-4-yl)-1H-indol-2-yl)-5-methylimidazo[1,2-a]pyridine], the 50% inhibitory concentration (IC50) is 100 to 1000 nM in assay [1], 100 to 1000 nM in assay [2] and 1000 to 50000 nM in assay [3].
Take `CC(C)c1c(-c2cnc3nccn3c2)[nH]c2ccc(C3CCN(CC(C)(C)O)CC3)cc12` [Example 761, 1-(4-(2-(imidazo[1,2-a]pyrimidin-6-yl)-3-isopropyl-1H-indol-5-yl)piperidin-1-yl)-2-methylpropan-2-ol]: the IC50 in assay [1] was < 100 nM; in assay [2] it was 100 to 1000 nM; in assay [3], 100 to 1000 nM.
As for `CNCCN1CCC(c2ccc3[nH]c(-c4ccc5nccnc5c4)c(C)c3c2)CC1` [Example 658], the figures for the half-maximal inhibitory concentration (IC50) in assay [1], in assay [2] and in assay [3] were 1000 to 50000 nM, 1000 to 50000 nM and 100 to 1000 nM, respectively.
Turning to `CCc1c(-c2n[nH]c3ncccc23)[nH]c2ccc(C3CCNCC3)cc12` [Example 244, 3-(3-ethyl-5-(piperidin-4-yl)-1H-indol-2-yl)-1H-pyrazolo[3,4-b]pyridine], the half-maximal inhibitory concentration (IC50) in assay [1] fell in the range of 100 to 1000 nM; in assay [2], 100 to 1000 nM; in assay [3], 1000 to 50000 nM.
For `CC(C)c1c(-c2cnc3c(cnn3C)c2)[nH]c2ccc(C3CCN(C(=O)CN(C)C)CC3)cc12` [Example 504, 2-(dimethylamino)-1-(4-(3-isopropyl-2-(1-methyl-1H-pyrazolo[3,4-b]pyridin-5-yl)-1H-indol-5-yl)piperidin-1-yl)ethan-1-one], the concentration for half-maximal inhibition (IC50) in assay [1] is < 100 nM; in assay [2] it was 100 to 1000 nM; in assay [3], 1000 to 50000 nM.
With `Cc1c(-c2[nH]c3ccc(C4CCN(C(=O)CN(C)C)CC4)cc3c2C(C)C)c2cccnc2n1C` [Example 459, 1-(4-(2-(1,2-dimethyl-1H-pyrrolo[2,3-b]pyridin-3-yl)-3-isopropyl-1H-indol-5-yl)piperidin-1-yl)-2-(dimethylamino)ethan-1-one], the results for the half-maximal inhibitory concentration (IC50) in assay [1], in assay [2] and in assay [3] were < 100 nM, < 100 nM and 1000 to 50000 nM, respectively.
On to `CCc1c(-c2ccnc3[nH]ncc23)[nH]c2ccc(C3CCN(C(=O)CN)CC3)cc12` [Example 461, 2-amino-1-(4-(3-ethyl-2-(1H-pyrazolo[3,4-b]pyridin-4-yl)-1H-indol-5-yl)piperidin-1-yl)ethan-1-one], for which the values for the IC50 in assay [1], in assay [2] and in assay [3] were 100 to 1000 nM, < 100 nM and 1000 to 50000 nM, respectively.
Regarding `Cc1cc(-c2[nH]c3ccc(C4CCN(CC(=O)N(C)C)CC4)cc3c2C(C)C)c(C)n2nnnc12` [Example 310, 2-(4-(2-(5,8-dimethyltetrazolo[1,5-a]pyridin-6-yl)-3-isopropyl-1H-indol-5-yl)piperidin-1-yl)-N,N-dimethylacetamide], the half-inhibitory concentration (IC50) in assay [1] is < 100 nM; in assay [2], < 100 nM; in assay [3], 1000 to 50000 nM.
As to `CC(C)c1c(-c2ccc3scnc3c2)[nH]c2ccc(C3CCNCC3)cc12` [Example 12, 5-(3-isopropyl-5-(piperidin-4-yl)-1H-indol-2-yl)benzo[d]thiazole], the IC50 lay within 100 to 1000 nM in assay [1], 1000 to 50000 nM in assay [2] and 100 to 1000 nM in assay [3].
For `CC(C)c1c(-c2ccc3oc(=O)[nH]c3c2)[nH]c2ccc(C3CCNCC3)cc12` [Example 11, 5-(3-isopropyl-5-(piperidin-4-yl)-1H-indol-2-yl)benzo[d]oxazol-2(3H)-one], the 50% inhibitory concentration (IC50) in assay [1] was < 100 nM; in assay [2] it was 100 to 1000 nM; in assay [3] it was 100 to 1000 nM.
Regarding `CC(C)c1c(-c2ccc(C#N)c3[nH]ncc23)[nH]c2ccc(C3CCNCC3)cc12` [Example 235, 4-(3-isopropyl-5-(piperidin-4-yl)-1H-indol-2-yl)-1H-indazole-7-carbonitrile], the IC50 in assay [1], in assay [2] and in assay [3] was 1000 to 50000 nM throughout.
In the case of `CC(C)c1c(-c2cn3ccnc3cc2C(F)(F)F)[nH]c2ccc(C3CCN(CC(=O)N(C)C)CC3)cc12` [Example 427, 2-(4-(3-isopropyl-2-(7-(trifluoromethyl)imidazo[1,2-a]pyridin-6-yl)-1H-indol-5-yl)piperidin-1-yl)-N,N-dimethylacetamide], the figures for the IC50 in assay [1], in assay [2] and in assay [3] were 100 to 1000 nM, < 100 nM and 1000 to 50000 nM, respectively.
Turning to `CC(C)c1c(-c2cn(C)c3ncccc23)[nH]c2ccc(C3CCN(CCC#N)CC3)cc12` [Example 959, 3-(4-(3-isopropyl-2-(1-methyl-1H-pyrrolo[2,3-b]pyridin-3-yl)-1H-indol-5-yl)piperidin-1-yl)propanenitrile], the IC50 is < 100 nM in assay [1], < 100 nM in assay [2] and > 50000 nM in assay [3].
